How the values were obtained:
[1] = target: human catalytic domain HDAC4 protein (Homo sapiens, UniProt P56524, A743G/DEL730-739/DEL742-742); assay: Inhibition of HDAC4 catalytic domain enzymatic activity, Boc-Lys(Tfa)-AMC substrate, fluorescence; settings: Class IIa selective substrate Boc-Lys(Tfa)-AMC, read-out: Biochemical HDAC-4 IC50;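 note: trypsin releases AMC from deacetylated substrate, fluorescence tracks enzyme activity, 15 min reaction at 37 °C, 100% activity defined by DMSO-only control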
[2] = test system: cellular histone deacetylase enzymatic activity in Jurkat E6-1 cells; assay: Inhibition of cellular HDAC activity, Boc-Lys(Tfa)-AMC substrate, in Jurkat E6-1 cells; assay type: cell-based; settings: Homo sapiens, Class IIa selective substrate Boc-Lys(Tfa)-AMC
Excerpt: The potency of Class IIa Histone Deacetylase (HDAC) inhibitors is quantified by measuring the cellular histone deacetylase enzymatic activity using the Class IIa selective substrate, Boc-Lys(Tfa)-AMC. After penetration in Jurkat E6-1 cells, the substrate is deacetylated to Boc-Lys-AMC. After cell lysis and cleavage by trypsin, the fluorophore AMC is released from the deacetylated substrate only. The fluoresence of the sample is directly related to the histone deacetylase activity in the sample.
Jurkat E6.1 Cell Culture and Plating.
Jurkat E6.1 cells are cultured according to standard cell culture protocols in Jurkat E6.1 Growth Media (RPMI without phenol red, 10% FBS, 10 mM HEPES, and 1 mM Sodium Pyruvate). Jurkat E6.1 cells are counted using a Coulter Counter and resuspended in Jurkat E6.1 growth media at a concentration of 75,000 cells/35 μl. 35 μl or 75,000 cells is seeded into Greiner microtitre assay plates. The plates are then incubated at 37° C. and 5% CO2 while other assay components are being prepared.
Serially Dilute HDAC Inhibitor Compounds.
Serial dilutions of the HDAC inhibitors and control reference compound (1-(5-(3-((4-(1,3,4-oxadiazol-2-yl)phenoxy)methyl)-1,2,4-oxadiazol-5-yl)thiophen-2-yl)-2,2,2-trifluoroethanone) are made by first resuspending the lyophilized compound to a final concentration of 10 mM in 100% DMSO. Stocks of 70 μl aliquots of the 10 mM compound in DMSO are prepared and stored at −20° C. From one stock aliquot of each compound to be tested and the reference compound, a 16-point serial dilution is prepared according to Table 7 using a 125 μl 16-channel Matrix multi-channel pipette.
2 μl (200×) of each diluted solution and each control (full activity: 100% DMSO alone or full inhibition 1 mM) is stamped into V-bottom polypropylene 384-well compound plates using either the Bravo, Janus, or […] 16-channel Matrix multi-channel pipette. Each well with the 200× compound solution is diluted 1:20 by the addition of 38 μl Jurkat assay buffer+DMSO (9.5% DMSO, RPMI without phenol red, 0.09% FBS, 9 mM Hepes, and 0.9 mM Sodium Pyruvate equilibrated to room temperature)
Prepare 5× (500 μM) Boc-Lys(Tfa)-AMC Substrate.
5× (500 μM) substrate is prepared just prior to the addition to the assay. The 5× substrate is prepared by diluting a 100 mM Boc-Lys(Tfa)-AMC in DMSO solution 1:200 by adding it drop-wise to Jurkat assay medium (RPMI without phenol red, 0.1% FBS, 10 mM Hepes, and 1 mM Sodium Pyruvate equilibrated to 37° C.) while vortexing at slow speed to prevent precipitation.
10 ml of 3× lysis buffer is prepared with 8.8 ml of 3× stock lysis buffer (50 mM Tris-HCl, pH 8.0, 137 mM NaCl, 2.7 mM KCl, 1 mM MgCl2, 1% Nonidet P40 Substitute equilibrated to room temperature) and 1.2 ml of 3 mg/ml Trypsin equilibrated to room temperature.
5 μl of each solution of 1:20 diluted compound from above is transferred to the Greiner microtitre assay plates with 75,000 cells/well using the Bravo. Cells are then incubated for 2 hours at 37° C. and 5% CO2. The assay is then started by adding 10 μl of 5× (500 μM) substrate to the assay plate using either the Bravo or 16-channel Matrix multi-channel pipette. The cells are then incubated for 3 hours at 37° C. and 5% CO2. Next, 25 μl of 3× lysis buffer is added to each well using either the 125 μl 16 channel pipette or the Bravo. The assay plate is then incubated overnight (15-16 hours) at 37° C. and 5% CO2. The following day, the plates are shaken on an orbital shaker for 1 minute at 900 rpm. Finally the top read fluorescence (Excitation: 355 nm, Emission: 460 nm) is measured using PerkinElmer EnVision.

`O=C(NO)[C@@H]1[C@H](c2ccccc2)[C@H]1c1cccc(N2CCCn3nccc32)c1` [Compound 56h, (1R,2R,3R)-2-(3-(6,7-Dihydropyrazolo[1,5-a]pyrimidin-4(5H)-yl)phenyl)-N-hydroxy-3-phenylcyclopropanecarboxamide] was tested. Which IC50 [1] did it give?
The IC50 was 0.17 µM.

And the IC50 [2]?
Its IC50 is 0.77 µM.

Which results are given for `O=C(NO)[C@@H]1[C@H](c2ccccc2)[C@H]1c1cnn(-c2ccc(C(F)(F)F)cn2)c1` [Compound 92b, (1R,2R,3R)—N-Hydroxy-2-phenyl-3-(1-(5-(trifluoromethyl)pyridin-2-yl)-1H-pyrazol-4-yl)cyclopropanecarboxamide]?
IC50 [1]: 0.18 µM; IC50 [2]: 1.17 µM

What does the source list for `CC(C)c1nc2ccc([C@H]3[C@H](C(=O)NO)[C@@H]3c3ccccc3)cc2o1` [Compound 39, (1R,2R,3R)—N-hydroxy-2-(2-isopropylbenzo[d]oxazol-6-yl)-3-phenylcyclopropanecarboxamide]?
IC50 [1]: 0.02 µM; IC50 [2]: 0.22 µM

Which IC50 [1] does the source give for `O=C(NO)[C@@H]1[C@H](c2ccccc2)[C@H]1c1ccc2c(c1)OC(F)(F)O2` [Compound 28e, (1R,2R,3R)-2-(2,2-Difluorobenzo[d][1,3]dioxol-5-yl)-N-hydroxy-3-phenylcyclopropanecarboxamide] here?
The IC50 was 0.12 µM.

And the IC50 [2]?
The IC50 was 2.03 µM.

`O=C(NO)[C@@H]1[C@H](c2ccccc2)[C@H]1c1ccc(NS(=O)(=O)C2CC2)cc1` (racemic) [Compound 22, (1R*,2R*,3R*)-2-(4-(cyclopropanesulfonamido)phenyl)-N-hydroxy-3-phenylcyclopropanecarboxamide] was tested. Which IC50 [1] did it give?
The IC50 was 0.05 µM.

What about the IC50 [2] of the same compound?
The IC50 was 1.32 µM.

What does the source list for `O=C(NO)[C@@H]1[C@H](c2ccccc2)[C@H]1c1ccc(C2=CCN(Cc3ccccc3)CC2)cc1` [Compound 71, (1R,2R,3R)-2-(4-(1-Benzyl-1,2,3,6-tetrahydropyridin-4-yl)phenyl)-N-hydroxy-3-phenylcyclopropanecarboxamide]?
IC50 [1]: 0.35 µM; IC50 [2]: 0.75 µM

How did the IC50 [1] turn out when `Cc1cnc(-c2ccc([C@H]3[C@H](C(=O)NO)[C@@H]3c3ccccc3)cc2)s1` [Compound 102, (1R,2R,3R)—N-hydroxy-2-(4-(5-methylthiazol-2-yl)phenyl)-3-phenylcyclopropanecarboxamide] was run?
The IC50 was 0.04 µM.

What about the IC50 [2] of the same compound?
Its IC50 is 0.44 µM.

What does the source list for `Cc1ncc(-c2ccc([C@H]3[C@H](C(=O)NO)[C@@H]3c3ccccc3F)cc2)o1` [Compound 75b, (1S,2R,3R)-2-(2-Fluorophenyl)-N-hydroxy-3-(4-(2-methyloxazol-5-yl)phenyl)cyclopropanecarboxamide]?
IC50 [1]: 0.05 µM; IC50 [2]: 0.47 µM

Which results are given for `O=C(NO)[C@@H]1[C@H](c2ccccc2)[C@H]1c1ccc(-c2ncc(C(F)(F)F)cn2)cc1` [Compound 50e, (1R,2R,3R)-2-(4-(5-Trifluoromethylpyrimidin-2-yl)phenyl)-N-hydroxy-3-phenylcyclopropanecarboxamide]?
IC50 [1]: 0.18 µM; IC50 [2]: 0.69 µM

What does the source list for `O=C(NO)[C@@H]1[C@H](c2ccccc2)[C@H]1c1ccc(-c2ccc3c(c2)CN(C2CC2)C3)cc1` (racemic) [Compound 52, (1R*,2R*,3R*)-2-(4-(2-cyclopropylisoindolin-5-yl)phenyl)-N-hydroxy-3-phenylcyclopropanecarboxamide]?
IC50 [1]: 0.48 µM; IC50 [2]: 1.79 µM

For `CC(C)N1CCN(c2ccc([C@H]3[C@H](C(=O)NO)[C@@H]3c3ccccc3F)cn2)CC1` [Compound 83, (1S,2R,3R)-2-(2-Fluorophenyl)-N-hydroxy-3-(6-(4-isopropylpiperazin-1-yl)pyridin-3-yl)cyclopropanecarboxamide], which IC50 [1] is on record?
Its IC50 is 0.12 µM.

And the IC50 [2]?
The IC50 was 0.75 µM.
